Tests used:
5-HT2C receptor [1] = target: T1, 5-HT2C receptor (Homo sapiens, UniProt P28335, DEL255-298/G251D/H250E/H252N/INS299[…]/L248D/M247A/M300L/T253W); format: binding; conditions: CPM assay, comparing to apo-protein
T1 construct: the N- and C-terminals were truncated by 39 and 65 residues, respectively; FLAG (N); PreScission protease site + 10× His (C); made in house; host or cells: Spodoptera frugiperda (Sf9), baculovirus

5-HT2C receptor [2] = target: T2, 5-HT2C receptor (Homo sapiens, UniProt P28335); experiment: Ca2+ mobilization assay (Fluo-4, FLIPR), HEK 293T cells stably transfected with 5-HT2C; format: cell-based
T2 construct: expressed in transfected cells; host or cells: HEK 293T, stably transfected
T2 sequence (P28335 33-458): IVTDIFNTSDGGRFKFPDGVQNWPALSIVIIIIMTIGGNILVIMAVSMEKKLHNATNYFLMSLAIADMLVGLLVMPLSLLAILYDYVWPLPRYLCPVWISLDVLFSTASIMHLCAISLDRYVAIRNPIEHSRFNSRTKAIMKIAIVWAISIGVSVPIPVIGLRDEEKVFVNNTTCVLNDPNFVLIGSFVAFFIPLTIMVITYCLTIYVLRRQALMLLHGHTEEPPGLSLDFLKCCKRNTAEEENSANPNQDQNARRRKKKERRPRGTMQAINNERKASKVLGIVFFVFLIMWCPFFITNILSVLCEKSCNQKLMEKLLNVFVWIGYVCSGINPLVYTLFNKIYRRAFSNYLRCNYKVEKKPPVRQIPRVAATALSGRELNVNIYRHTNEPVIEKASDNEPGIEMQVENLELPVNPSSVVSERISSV
Description: (§1) The 5-HT2C receptor mainly couples to Gαq proteins. The activated 5-HT2C receptor transmits the signals from the extracellular to the intercellular side using DAG/IP3 (diacyl glycerol/inositol 1,4,5-trisphosphate) as its second massagers (Hannon and Hoyer [2008]). IP3 stimulates the endoplasmic reticulum to release calcium ions into the cytoplasm, which causes the increase of calcium concentration in cytosol. Therefore, calcium mobilization assay is commonly applied to understand how unknown small molecule ligands of 5-HT2C receptor modulate cellular signal transductions. In this case, Fluo-4 Direct dye was used as a fluorescence indicator to detect calcium flux in G protein-coupled receptor expressed cells. The fold of maximum response over average of basal reading is plotted against compound concentration to determine the potency of the compounds (Fig. 3). […]. HEK 293T cells stably transfected with 5-HT2A/2B/2C receptor were seeded in 384-well plates at a density of 15,000 cells/well in DMEM containing 1% dialyzed FBS 8 h before the calcium flux assay. After removing medium, cells were then incubated (20 μl/well) for 1 h at 37 °C with Fluo-4 Direct dye (Invitrogen) reconstituted in FLIPR buffer (1× HBSS, 2.5 mmol/L probenecid, and 20 mmol/L HEPES, pH 7.4). After the dye loaded, cells were placed in a FLIPR^TETRA fluorescence imaging plate reader (Molecular Devices); drug dilutions, prepared at 3× final concentration in FLIPR buffer and aliquotted into 384-well plates, were also added to the FLIPR^TETRA. The fluidics module and plate reader of the FLIPR^TETRA were programmed to read baseline fluorescence for 10 s (1 read/s), then to add 10 μl of drug/well and to read for 6 min (1 read/s). Fluorescence in each well was normalized to the average of the first 10 reads (i.e., baseline fluorescence). Then, the maximum-fold increase, which occurred within 60 s after drug addition, over baseline fluorescence elicited by vehicle or drug was determined. […]

5-HT2B receptor = target: T3, 5-HT2B receptor (Homo sapiens, UniProt P41595); experiment: Ca2+ mobilization assay (Fluo-4, FLIPR), HEK 293T cells stably transfected with 5-HT2B; format: cell-based; conditions: agonist mode, up to 30,000 nmol/L
T3 construct: expressed in transfected cells; host or cells: HEK 293T, stably transfected
T3 sequence (P41595 whole entry): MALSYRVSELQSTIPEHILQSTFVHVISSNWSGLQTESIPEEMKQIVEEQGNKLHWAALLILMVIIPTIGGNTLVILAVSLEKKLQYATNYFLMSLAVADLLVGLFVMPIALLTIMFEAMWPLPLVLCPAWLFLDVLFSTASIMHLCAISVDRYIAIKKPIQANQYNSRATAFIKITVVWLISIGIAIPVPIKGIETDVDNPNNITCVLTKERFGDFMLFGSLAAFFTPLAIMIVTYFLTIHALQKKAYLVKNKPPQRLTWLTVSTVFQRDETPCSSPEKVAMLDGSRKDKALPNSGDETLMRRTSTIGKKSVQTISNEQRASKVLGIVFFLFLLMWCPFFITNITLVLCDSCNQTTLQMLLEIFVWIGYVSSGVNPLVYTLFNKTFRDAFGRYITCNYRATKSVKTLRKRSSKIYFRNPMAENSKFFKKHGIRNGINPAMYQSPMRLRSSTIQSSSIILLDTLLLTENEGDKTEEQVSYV
Description: as §1, with “HEK 293T cells stably transfected with 5-HT2A/2B/2C receptor were seeded in 384-well plates at a density of 15,000 cells/well in DMEM containing 1% dialyzed FBS 8 h before the calcium flux assay. After removing medium, cells were then incubated (20 μl/well) for 1 h at 37 °C with Fluo-4 Direct dye (Invitrogen) reconstituted in FLIPR buffer (1× HBSS, 2.5 mmol/L probenecid, and 20 mmol/L HEPES, pH 7.4).” left out, “read/s).” for “read/s). Fluorescence in each well was normalized to the average of the first 10 reads (i.e., baseline fluorescence). Then, the maximum-fold increase, which occurred within 60 s after drug addition, over baseline fluorescence elicited by vehicle or drug was determined.”

5-HT2A receptor = target: T4, 5-HT2A receptor (Homo sapiens, UniProt P28223); experiment: Ca2+ mobilization assay (Fluo-4, FLIPR), HEK 293T cells stably transfected with 5-HT2A; format: cell-based; conditions: agonist mode, up to 30,000 nmol/L
T4 construct: expressed in transfected cells; host or cells: HEK 293T, stably transfected
T4 sequence (P28223 whole entry): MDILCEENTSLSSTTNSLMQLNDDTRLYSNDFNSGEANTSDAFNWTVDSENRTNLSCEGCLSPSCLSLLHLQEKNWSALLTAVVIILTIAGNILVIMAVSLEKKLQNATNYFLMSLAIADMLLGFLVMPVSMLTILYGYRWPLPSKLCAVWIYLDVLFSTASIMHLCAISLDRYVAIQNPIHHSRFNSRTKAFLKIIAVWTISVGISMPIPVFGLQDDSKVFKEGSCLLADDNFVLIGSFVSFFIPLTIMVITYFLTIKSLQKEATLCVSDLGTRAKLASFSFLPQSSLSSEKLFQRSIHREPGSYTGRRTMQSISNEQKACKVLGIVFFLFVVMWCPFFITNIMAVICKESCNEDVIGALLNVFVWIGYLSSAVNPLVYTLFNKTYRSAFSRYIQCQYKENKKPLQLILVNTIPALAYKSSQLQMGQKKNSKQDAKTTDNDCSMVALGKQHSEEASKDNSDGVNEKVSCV
Description: as §1, with “HEK 293T cells stably transfected with 5-HT2A/2B/2C receptor were seeded in 384-well plates at a density of 15,000 cells/well in DMEM containing 1% dialyzed FBS 8 h before the calcium flux assay. After removing medium, cells were then incubated (20 μl/well) for 1 h at 37 °C with Fluo-4 Direct dye (Invitrogen) reconstituted in FLIPR buffer (1× HBSS, 2.5 mmol/L probenecid, and 20 mmol/L HEPES, pH 7.4).” left out, “read/s).” for “read/s). Fluorescence in each well was normalized to the average of the first 10 reads (i.e., baseline fluorescence). Then, the maximum-fold increase, which occurred within 60 s after drug addition, over baseline fluorescence elicited by vehicle or drug was determined.”

[3] = test system: cortical pyramidal neurons; experiment: Whole-cell patch clamp recording of spontaneous synaptic current (SPSC) in brain slices; format: cell-based; conditions: 10 μmol/L; mouse brain slices
Description: 5-HT receptors play important roles in central and peripheral nervous systems. Malfunctions of these receptors have been linked to many neural disorders such as depression and psychosis. The effect of (–)-crebanine on changes in 5-HT induced synaptic transmission was evaluated by electrophysiological recording of mouse brain slices (Jang et al. [2012]). The spontaneous synaptic current (SPSC) of cortical pyramidal neurons was recorded in whole cell mode.
Cortical slices from ICR mouse of both genders (15–21 days) were prepared for electrophysiological recording. In brief, the animals were decapitated and brains were placed in cold sucrose artificial cerebrospinal fluid (sucrose-ASCF, in mmol/L: sucrose 213, KCl 2.5, NaH2PO4 1.25, NaHCO3 26, D-glucose 10, MgSO4 2, CaCl2 2, pH 7.4, 0–4 °C, saturated with 95% O2 and 5% CO2). The brains were cut into 280 or 300 μm slices with a vibratome (Leica VT1200S, Germany); slices were then incubated with ACSF (in mmol/L: NaCl 126, KCl 2.5, NaH2PO4 1.25, NaHCO3 26, D-glucose 25, MgSO4 2, CaCl2 2, pH 7.4, saturated with 95% O2 and 5% CO2) at room temperature for 1 h.
A whole-cell patch clamp technique was used. […] Activity of cortical pyramidal neurons was recorded using an amplifier (HEKA EPC 10 USB, Germany) in the voltage clamp mode. […]

5-HT2C receptor [4] = target: T1, 5-HT2C receptor; format: binding

T1 sequence (P28335 with tags, fused parts or gaps with the stated changes limits assumed): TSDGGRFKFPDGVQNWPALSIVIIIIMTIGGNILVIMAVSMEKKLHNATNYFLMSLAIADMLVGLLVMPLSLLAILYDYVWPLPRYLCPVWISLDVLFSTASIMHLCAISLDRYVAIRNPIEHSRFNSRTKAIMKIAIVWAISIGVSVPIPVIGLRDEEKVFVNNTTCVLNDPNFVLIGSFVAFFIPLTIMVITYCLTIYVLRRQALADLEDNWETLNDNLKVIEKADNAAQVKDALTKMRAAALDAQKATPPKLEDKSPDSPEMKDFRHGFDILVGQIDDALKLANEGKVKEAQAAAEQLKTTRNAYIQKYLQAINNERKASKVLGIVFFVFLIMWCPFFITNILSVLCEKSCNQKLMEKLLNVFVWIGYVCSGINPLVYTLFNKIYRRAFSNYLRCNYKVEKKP

COc1cc2c(cc1OC)-c1c3c(cc4c1[C@@H](C2)N(C)CC4)OCO3 [Compound 2, (–)-dicentrine]
thermal shift value (∆Tm) (5-HT2C receptor [1]): < 1.00 °C

COc1ccc2c(c1O)-c1c(O)c(OC)cc3c1[C@H](C2)[N+](C)(C)CC3 [Compound 3, (+)-magnoflorine]
thermal shift value (∆Tm) (5-HT2C receptor [1]): < 1.00 °C

COc1cc2cc3c4c(cc(OC)c(OC)c4c2cc1OC)CCN3C [Compound 4, didehydroglaucine]
thermal shift value (∆Tm) (5-HT2C receptor [1]): < 1.00 °C

COc1ccc2c(c1O)-c1c(OC)c(OC)cc3c1[C@H](C2)N(C)CC3 [Compound 5, (+)-isocorydine]
EC50 (5-HT2C receptor [2]): 2080 nM
Emax (5-HT2C receptor [2]; HEK-293T): 16.6%
receptor activation (5-HT2B receptor): inactive
receptor activation (5-HT2A receptor): inactive

NCCc1c[nH]c2ccc(O)cc12 [Compound 5-HT, 5-hydroxytryptamine, reference compound]
effect on SPSC [3]: amplified

Cc1nc2sccn2c(=O)c1CCN1CCC(=C(c2ccc(F)cc2)c2ccc(F)cc2)CC1 [Ritanserin, ritanserin, reference compound]
S/C (5-HT2C receptor [4]): 8.39 ± 1.80
affinity (in words) (5-HT2C receptor [4]): high nmol/L range

Source: article PMC5860131, “Identification of natural products as novel ligands for the human 5-HT2C receptor” (Biophysics Reports, 2018)
